Assay results as given in US10975092B2, “Pyrimidine seven-membered-ring compounds, preparation method therefor, pharmaceutical composition thereof, and uses thereof” (priority 2016, dated 2021).

Tests used:
recombinant MST2 = target: T1, recombinant MST2 (Homo sapiens, UniProt Q13188); test: Inhibition of Mst2 kinase activity, ELISA of Mob1 substrate phosphorylation; assay type: biochemical; conditions: MST2 IC50, 3.7 nM recombinant MST2; ATP 11.2 gIVI; GST-Mob1a substrate; 30° C. 15 min
T1 sequence (Q13188 1-491): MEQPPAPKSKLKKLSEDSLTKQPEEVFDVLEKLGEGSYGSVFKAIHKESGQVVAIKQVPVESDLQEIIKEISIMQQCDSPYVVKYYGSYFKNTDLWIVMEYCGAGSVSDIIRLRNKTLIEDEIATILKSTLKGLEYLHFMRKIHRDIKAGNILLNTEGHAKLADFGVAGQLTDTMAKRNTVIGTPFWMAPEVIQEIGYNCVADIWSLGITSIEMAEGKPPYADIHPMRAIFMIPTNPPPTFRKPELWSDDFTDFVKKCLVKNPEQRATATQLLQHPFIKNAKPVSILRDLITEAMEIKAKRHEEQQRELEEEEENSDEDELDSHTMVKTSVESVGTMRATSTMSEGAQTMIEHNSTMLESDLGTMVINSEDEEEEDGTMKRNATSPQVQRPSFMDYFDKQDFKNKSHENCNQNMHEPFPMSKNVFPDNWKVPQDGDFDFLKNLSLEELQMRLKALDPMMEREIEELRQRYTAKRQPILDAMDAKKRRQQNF
Protocol: (§1) We adopt a specific ELISA (Enzyme-linked immunosorbent assay) assay for measuring the biochemical activity (FIG. 1).
(§2) Specific methods are as follows:
(§3) 1. The substrate was diluted with purified recombinant GST-Mobla 200 nM in coating buffer, added to 96-well plates (Nalge Nunc International, Denmark), coated for overnight at 4° C., washed nextday three times with rinsing solution;
(§4) a. A kinase reaction buffer;
(§5) c. compound (dissolved in DMSO, containing not more than 1% of the total volume of the reaction);
(§6) Control Group Containing No ATP or Kinase;
(§7) 3. The reaction solution was poured to terminate the kinase reaction, and washed 4 times with rinse solution, 5 minutes each wash;
(§8) 4. Add 200 μL, per well of the blocking solution, shaking for 1 hour at room temperature, washed 4 times with rinsing solution;
(§9) 7. Add TMB chromogenic solution (Biolegend, Cat.B200119, B200120). After the color reaction to a certain extent, add to each well 100 μL, of 2M H2SO4 to terminate the reaction;
(§10) 8. […] Each set of three parallel experiments, the negative control is a solution with a final concentration of 1% DMSO, the control is the reaction system containing no ATP. […] The reagents are as follows: Coating Buffer: 0.1M NaHCO 3, 0.033M Na2CO3, pH 9.5 Rinse solution: 0.05% Tween-20 in PBS Reaction buffer: 40 mM of Hepes-NaOH (pH 7.4), 10 mM of MgCl2, 1 mM of dithiothreitol (DTT), 1 mM of NaF, 1 mM of Na3VO4, 1 mM of β-glycerophosphate Blocking solution: 1% BSA dissolved in PBS Compound Inhibition of Kinase Activity

[1] = system: wild type mice after hepatectomy; test: Liver regeneration after partial liver resection (hepatectomy) in mice; assay type: in vivo; conditions: about 2/3 hepatectomy, 1 mg/kg body weight intraperitoneally twice daily, 1-7 days
Protocol: Student's t-test in comparing drug-treated group and control group, *P<0.05, ***P<0.001.
8-10 week old wild type mice were anesthetized with intraperitoneal pentobarbital (80 mg/kg body weight). Hepatectomy was performed to remove left rear and intermediate liver lobes, about ⅔ of the entire liver. […] Mice after hepatectomy of 1, 2, 3, 4, 5, 6, or 7 days were sacrificed. Mouse body weight and liver weight are recorded and used to calculate the weight ratio of the liver (FIG. 2a). Liver tissue section used in immunohistochemistry to detect proliferating hepatocytes (of Ki67-positive) percentage.

[2] = system: DSS-treated wild type mice; test: Intestinal repair in DSS-induced intestinal injury mouse model; assay type: in vivo
Protocol: 8-10 week old wild type mice were fed with water containing 2.5% DSS (MW 36-50 kDa, Cat. #160110, MP Biochemical) for 7 days, then switch to conventional drinking water. […] Throughout the experiment, the body weight of mice was weighed every day at a fixed time and calculate the ratio of the weight and the weight before DSS feeding. […] The DAI values were calculated as follows: the integrity of the stool (value 0-3, where 0: full dried fecal pellets; 1: soft particles; 2: loose, wet stool; 3: diarrhea); detection of intestinal bleeding with tolidine (o-tolidine) (value 0-3, where 0: detection reagent was added for 2 minutes, sample no color; 1: detection reagent was added, the sample within 10 seconds from light blue to blue; 2: after adding detection reagents, samples gradually changed from light brown to brown clear blue and a visible color in the feces; 3: after adding detection reagents, samples rapidly becoming brownish blue, significant blood and bleeding in a anus and feces. The body weight change in mice and DAI values were recorded for indicating the degree of intestinal injury repair.

recombinant Mst1 = target: T2, recombinant Mst1 (Homo sapiens, UniProt Q13043); test: Inhibition of Mst1 kinase activity, ELISA of Mob1 substrate phosphorylation; assay type: biochemical; conditions: MST1 IC50, recombinant Mst1 11 nM; ATP 6.7 gIVI; GST-Mob1a substrate; 30° C. 15 min
T2 sequence (Q13043 1-487): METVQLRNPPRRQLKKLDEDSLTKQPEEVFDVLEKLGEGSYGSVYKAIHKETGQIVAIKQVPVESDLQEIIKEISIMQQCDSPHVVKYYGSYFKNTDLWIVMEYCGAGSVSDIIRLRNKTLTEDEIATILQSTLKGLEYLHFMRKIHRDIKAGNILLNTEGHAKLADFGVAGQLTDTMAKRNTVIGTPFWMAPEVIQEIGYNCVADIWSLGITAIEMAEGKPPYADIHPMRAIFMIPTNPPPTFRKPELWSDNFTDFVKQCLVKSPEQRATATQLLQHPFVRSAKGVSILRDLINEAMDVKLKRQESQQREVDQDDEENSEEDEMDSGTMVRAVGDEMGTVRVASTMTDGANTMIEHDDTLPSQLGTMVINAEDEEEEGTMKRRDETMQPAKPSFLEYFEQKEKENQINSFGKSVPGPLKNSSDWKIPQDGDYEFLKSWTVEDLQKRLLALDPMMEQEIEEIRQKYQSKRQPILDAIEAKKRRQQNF
Protocol: as §1, §2, §3, §4, §5, §6, §7, §8, §9, §10

Row | SMILES | IC50 (recombinant MST2) [µM] | Liver regeneration after partial liver resection (liver/body weight ratio, Ki67-positive hepatocytes) [1] | Intestinal repair in DSS-induced intestinal injury model ([2]; 2.5% DSS in water 7 days, 1 mg/kg body weight injected once per day) | Body weight of DSS-treated mice ([2]; 2.5% DSS in water 7 days, 1 mg/kg once per day, FIG. 3a) | Intestinal injury clinical symptoms (disease activity index, DAI) ([2]; 2.5% DSS in water 7 days, 1 mg/kg once per day, FIG. 3b) | Yap activity in intestinal epithelial cells (immunohistochemical staining) ([2]; day 8 after DSS water feeding, 1 mg/kg once per day, FIG. 3c) | Epithelial repair and cell proliferation (BrdU and Ki67 positive cells in intestinal tissue) ([2]; day 8 after DSS water feeding, 1 mg/kg once per day, FIG. 3c-e) | IC50 (recombinant Mst1) [nM]
1 | CN1C(=O)c2sccc2N(C)c2nc(Nc3ccc(S(N)(=O)=O)cc3)ncc21 [II-1] | 0.04 | Effective in Promoting Liver Regeneration | promotes intestinal repair | significantly increase | slow the intestinal injury clinical symptoms | increases Yap activity | promote epithelial repair and cell proliferation | 140
2 | CN1CCN(C(=O)c2ccc(Nc3ncc4c(n3)N(C)c3ccsc3C(=O)N4C)cc2)CC1 [II-17] | 2.51 |  |  |  |  |  |  | 610
3 | CN1CCN(S(=O)(=O)c2ccc(Nc3ncc4c(n3)N(C)c3ccsc3C(=O)N4C)cc2)CC1 [II-7] | 0.15 |  |  |  |  |  |  | 1100
4 | CN1C(=O)c2ccccc2Nc2nc(Nc3ccc(NS(C)(=O)=O)cc3)ncc21 [IG-2] | 14.6 |  |  |  |  |  |  | 5800
5 | C=CC(=O)Nc1ccc(Nc2ncc3c(n2)N(C)c2ccsc2C(=O)N3C)cc1 [II-23] | 4.76 |  |  |  |  |  |  | 770
6 | CC(C)N1c2ccccc2C(=O)N(C)c2cnc(Nc3ccc(NS(C)(=O)=O)cc3)nc21 [IE-3] | 8.21 |  |  |  |  |  |  | 2720
